# Tests used:
# Format in all cases: cell-based
# [1] = system: Escherichia coli MI-4 [gyrA(S83L), parC(S801)]; test: Susceptibility of mutant E. coli strains, MIC
# From the text: (§1) Cystobactamides were screened using a panel of E. coli strains with typical mutations in gyrA and parC genes (Table 11).
# [2] = system: E. coli strain WT-3 (combination of both gyrA mutations); conditions: Escherichia coli WT-3 [gyrA(S83L, D87G)]
# From the text: as §1
# (§2) Bacterial wildtype strains used in susceptibility assays were either part of our strain collection or purchased from the German Collection of Microorganisms and Cell Cultures (DSMZ) or from the American Type Culture Collection (ATCC). E. coli strain WT^[6] and E. coli mutants were kindly provided by Prof. Dr. P. Heisig, Pharmaceutical Biology and Microbiology, University of Hamburg.
# MIC values were determined in microdilution assays. Overnight cultures were diluted in the appropriate growth medium to achieve an inoculum of 10^4-10^6 cfu/mL. Yeasts were grown in Myc medium (1% phytone peptone, 1% glucose, 50 mM HEPES, pH 7.0), S. pneumonia and E. faecalis in tryptic soy broth (TSB: 1.7% peptone casein, 0.3% peptone soymeal, 0.25% glucose, 0.5% NaCl, 0.25% K2HPO4; pH 7.3); M. smegmatis in Middlebrook 7H9 medium supplemented with 10% Middlebrook ADC enrichment and 2 ml/l glycerol). All other listed bacteria were grown in Müller-Hinton broth (0.2% beef infusion solids, 1.75% casein hydrolysate, 0.15% starch, pH 7.4). […] Growth inhibition was assessed by visual inspection and the MIC was defined as the lowest concentration of compound that inhibited visible growth.
# E. coli WT = test: Susceptibility of mutant E. coli strains, MIC; conditions: Escherichia coli WT
# From the text: as §1
# High-level quinolone resistance often results from a combination of several target site mutations and altered efflux mechanisms. […] This, in turn, leads to overproduction of MarA and AcrAB and overexpression of the AcrAB efflux pump is associated with the MAR (multiple antibiotic resistance) phenotype.^[5]
# as §2
# (§3) MIC values were determined in microdilution assays. Overnight cultures were diluted in the appropriate growth medium to achieve an inoculum of 10^4-10^6 cfu/mL. Yeasts were grown in Myc medium (1% phytone peptone, 1% glucose, 50 mM HEPES, pH 7.0), S. pneumonia and E. faecalis in tryptic soy broth (TSB: 1.7% peptone casein, 0.3% peptone soymeal, 0.25% glucose, 0.5% NaCl, 0.25% K2HPO4; pH 7.3); M. smegmatis in Middlebrook 7H9 medium supplemented with 10% Middlebrook ADC enrichment and 2 ml/l glycerol). All other listed bacteria were grown in Müller-Hinton broth (0.2% beef infusion solids, 1.75% casein hydrolysate, 0.15% starch, pH 7.4). Cystobactamides and reference drugs were added directly to the cultures in sterile 96-well plates as duplicates and serial dilutions were prepared. Microorganisms were grown on a microplate shaker (750 rpm, 30-37° C., 18-48 h), except S. pneumonia, which was grown at non-shaking conditions (37° C., 5% CO2, 18 h). Growth inhibition was assessed by visual inspection and the MIC was defined as the lowest concentration of compound that inhibited visible growth.
# [3] = system: Human HCT-116 colon carcinoma cells
# Protocol: (§4) Human HCT-116 colon carcinoma cells (CCL-247) were obtained from the American Type Culture Collection (ATCC) and Chinese hamster ovary CHO-K1 cells (ACC-110) were obtained from the German Collection of Microorganisms and Cell Cultures (DSMZ). Both cell lines were cultured under the conditions recommended by the respective depositor. Primary HUVEC (human umbilical vein endothelial cells; single donor) were purchased from PromoCell (Heidelberg, Germany) and cultured in Endothelial Cell Growth Medium (PromoCell) containing the following supplements: 2% FCS, 0.4% ECGS, 0.1 ng/ml EGF, 1 ng/ml bFGF, 90 μg/ml heparin, 1 μg/ml hydrocortisone.
# (§5) Cells were seeded at 6×10^3 cells per well of 96-well plates (Corning CellBind®) in complete medium (180 μl) and directly treated with cystobactamides dissolved in methanol in a serial dilution. Compound were tested in duplicate for 5 d, as well as the internal solvent control. After 5 d incubation, 5 mg/ml MTT in PBS (20 μL) was added per well and it was further incubated for 2 h at 37° C.[7] The medium was then discarded and cells were washed with PBS (100 μl) before adding 2-propanol/10N HCl (250:1, v/v; 100 μl) in order to dissolve formazan granules. The absorbance at 570 nm was measured using a microplate reader (EL808, Bio-Tek Instruments Inc.).
# [4] = system: Primary HUVEC (human umbilical vein endothelial cells)
# Protocol: as §4, §5
# [5] = system: Pseudomonas aeruginosa ATCC27853; test: Susceptibility testing, MIC microdilution
# Protocol: as §2, §3
# Bacillus subtilis DSM-10 = test: Susceptibility testing, MIC microdilution; conditions: Bacillus subtilis DSM-10
# Protocol: as §2, §3
# [6] = system: Burkholderia cenocepacia DSM-16553; test: Susceptibility testing, MIC microdilution; conditions: Burkholderia cenocepacia DSM-16553
# Protocol: as §2, §3
# [7] = system: Enterococcus faecalis ATCC29212; test: Susceptibility testing, MIC microdilution
# Protocol: as §2, §3
# [8] = system: Enterobacter aerogenes DSM-30053; test: Susceptibility testing, MIC microdilution; conditions: Enterobacter aerogenes DSM-30053
# Protocol: as §2, §3
# [9] = system: Escherichia coli DSM-1116; test: Susceptibility testing, MIC microdilution; conditions: Escherichia coli DSM-1116
# Protocol: as §2, §3
# [10] = system: Chromobacterium violaceum DSM-30191; test: Susceptibility testing, MIC microdilution; conditions: Chromobacterium violaceum DSM-30191
# Protocol: as §2, §3
# [11] = system: Mycobacterium smegmatis mc^2155 ATCC700084; test: Susceptibility testing, MIC microdilution; conditions: Mycobacterium smegmatis mc^2155 ATCC700084
# Protocol: as §2, §3
# [12] = system: Escherichia coli DSM-12242 (NAL^R); test: Susceptibility testing, MIC microdilution; conditions: Escherichia coli DSM-12242 (NAL^R)
# Protocol: as §2, §3
# [13] = system: Streptococcus pneumoniae DSM-20566; test: Susceptibility testing, MIC microdilution; conditions: Streptococcus pneumoniae DSM-20566
# Protocol: as §2, §3
# [14] = system: Escherichia coli DSM-26863 (tolC3); test: Susceptibility testing, MIC microdilution; conditions: Escherichia coli DSM-26863 (tolC3)
# Protocol: as §2, §3
# [15] = system: Candida albicans DSM-1665; test: Susceptibility testing, MIC microdilution; conditions: Candida albicans DSM-1665
# Protocol: as §2, §3
# [16] = system: Escherichia coli ATCC35218; test: Susceptibility testing, MIC microdilution
# Protocol: as §2, §3
# [17] = system: Klebsiella pneumoniae DSM-30104; test: Susceptibility testing, MIC microdilution; conditions: Klebsiella pneumoniae DSM-30104
# Protocol: as §2, §3
# [18] = system: Escherichia coli ATCC25922; test: Susceptibility testing, MIC microdilution
# Protocol: as §2, §3
# [19] = system: Acinetobacter baumannii DSM-30008; test: Susceptibility testing, MIC microdilution; conditions: Acinetobacter baumannii DSM-30008
# Protocol: as §2, §3
# Pichia anomala DSM-6766 = test: Susceptibility testing, MIC microdilution; conditions: Pichia anomala DSM-6766
# Protocol: as §2, §3
# [20] = system: Micrococcus luteus DSM-1790; test: Susceptibility testing, MIC microdilution; conditions: Micrococcus luteus DSM-1790
# Protocol: as §2, §3
# [21] = system: Staphylococcus aureus ATCC29213; test: Susceptibility testing, MIC microdilution
# Protocol: as §2, §3
# [22] = system: several microorganisms and cell lines; test: Biological evaluation, summary statements over the MIC and cytotoxicity tests
# Protocol: as §5, §3
# [23] = system: E. coli strain WT-3.2 (single-step gyrA mutation); test: Susceptibility of mutant E. coli strains, MIC; conditions: Escherichia coli WT-3.2 [gyrA(D87G)]
# From the text: as §1, §2, §3
# [24] = system: E. coli strain WT-4 M2.1 (parC mutation); test: Susceptibility of mutant E. coli strains, MIC; conditions: Escherichia coli WT-4 M2.1 [parC(S801)]
# From the text: as §1, §2, §3
# [25] = system: E. coli strain MI (single-step gyrA mutation); test: Susceptibility of mutant E. coli strains, MIC; conditions: Escherichia coli MI [gyrA(S83L)]
# From the text: as §1, §2, §3
# [26] = system: E. coli strain WT III (marR Δ74 bp); test: Susceptibility of mutant E. coli strains, MIC
# Protocol: as §2, §3
structure (smiles),measurement,setting,value
COC(C(=O)Nc1ccc(C(=O)Nc2ccc(C(=O)Nc3ccc(C(=O)O)cc3OC(C)C)c(O)c2OC(C)C)cc1)C(NC(=O)c1ccc(NC(=O)c2ccc([N+](=O)[O-])cc2)cc1)C(=O)O (stereo not shown) [cystobactamide B],MIC,[1],1.8 µg/mL
same,MIC,[2],7.4 µg/mL
same,MIC,E. coli WT,1.8 µg/mL
same,GI50,[3],> 50 µM
same,GI50,[4],> 50 µM
same,MIC,[5],14.7 µg/mL
same,MIC,Bacillus subtilis DSM-10,0.46 µg/mL
same,MIC,[6],>59 µg/mL
same,MIC,[7],0.23 µg/mL
same,MIC,[8],>59 µg/mL
same,MIC,[9],1.8 µg/mL
same,MIC,[10],14.7 µg/mL
same,MIC,[11],>59 µg/mL
same,MIC,[12],3.7 µg/mL
same,MIC,[13],0.46 µg/mL
same,MIC,[14],1.8 µg/mL
same,MIC,[15],>59 µg/mL
same,MIC,[16],1.8 µg/mL
same,MIC,[17],>59 µg/mL
same,MIC,[18],0.9 µg/mL
same,MIC,[19],3.7 µg/mL
same,MIC,Pichia anomala DSM-6766,>59 µg/mL
same,MIC,[20],0.23 µg/mL
same,MIC,[21],0.12 µg/mL
same,inhibition of pathogenic Gram-negative strains A. baumannii and P. aeruginosa (MIC range),[22]; A. baumannii and P. aeruginosa,low μg/ml range
same,average potency on Gram-positive bacteria compared with ciprofloxacin,"[22]; E. faecalis, S. aureus, S. pneumonia, average MIC",exceeded that of ciprofloxacin
same,MIC,[23],3.7 µg/mL
same,MIC,[24],1.8 µg/mL
same,MIC,[25],3.7 µg/mL
same,"MIC, in words",[26]; E. coli WT III,in the μg/ml range
same,MIC,[26]; Escherichia coli WTIII [marRΔ74bp],3.7 µg/mL
